# Results from patent US20040014217A1, “Methods of transfection” (priority 2000, published 2004).
# How the values were obtained:
# Assay type in all cases: cell-based, human
# [1] = test system: 1HAEo-cells; assay: Luminometric luciferase assay, EGTA effects, 1HAEo- cells; conditions: 2 mM EGTA prior to transfection, 2 washes
# Procedure: The confluent (A) and subconfluent (B) 1HAEo-cells were transfected with LID complexes after pre-treatment with EGTA (EGTA) or in the presence of EGTA (LID+EGTA).
# To enhance the efficiency of transfection in confluent epithelial cells, several agents were tested including EGTA (Sigma, Poole, UK), trypsin/EDTA (Sigma, Poole, UK), water, and mouse anti human E-cadherin antibody (Serotec Ltd, Oxford, UK). It was carried out firstly by comparing the effects of pretreatment of the cells with EGTA, water and Trypsin/EDTA with EGTA formulated into LID vector without pretreatment. […]
# Twenty-four hours after transfection with pCI-luciferase, is cells were washed with PBS, lysed by adding 100 μl of Reporter Lysis Buffer (Promega, Southampton, UK) and detached from the plate by manual scraping using micropipette tips. […] The activity of luciferase was assayed with a luciferase assay kit (Promega, Southampton, UK) on a Lucy-1 plate-reading luminometer (Anthos, Salzburg, Austria). The protein concentration of each sample was determined with Protein Assay Reagent (BioRad Laboratories, Hertfordshire, UK) by measuring absorbance at 595 nm and the specific activity of luciferase was expressed as relative light unit per milligram protein (RLU/mg protein).
# [2] = test system: confluent 1HAEo-cells; assay: Binding of FITC-labelled LID complexes to confluent cells; conditions: 2 mM EGTA, 4° C.
# Procedure: The effects of EGTA on cell binding were determined by transfection with LID complexes prepared with fluorescein (FITC) labelled peptide. Peptide-12 was labelled with FITC from a labelling kit (Calbiochem, San Diego, USA) and purified by dialyzing in PBS overnight, according to the manufacturer's instruction. The ability of FITC-conjugated peptide-12 to form complexes with plasmid DNA was determined by retardation test, in which the electrophoresis migration of DNA is retarded by forming complexes with the cationic peptide as described previously (Hart et al., 1995). […] The cells were then transfected with apically added LID-FITC for 60 minutes at 4° C., at which the complexes would only bind to cell surface and no internalisation would occur, see(Chu et al (1999), Cornelissen et al (1997), Im et al (1986). The surface binding of the LID complexes was further differentiated from the internalised LID by incubating the cells with 1 μg/ml crystal violet (Sigma, Poole, UK) for 10 minutes at 4° C., to quench the fluorescence of surface-bound LID complexes, see (Ma et al (1997), Van Amers & Van Strijp (1994). The mean numbers of fluorescent particles were then counted in 10 random microscope fields and comparison was made between the data obtained from EGTA-treated or untreated cells.
# [3] = test system: normal and CF epithelial cell lines; assay: Transfection of sub-confluent and confluent airway epithelial cell lines (summary of description)
# Excerpt: However, all the cell lines tested were transfected under conventional conditions for transfection, that is to say, the cells were sub-confluent. It has been reported that mitosis is required for efficient transformation using cationic liposomes and also when using peptide-based transformation systems (Wilke, 1996; Tseng 1999; Brunner 2000). Confluent cells and/or cells treated with inhibitors of DNA polymerase such as aphidicolin are non-mitotic and transfect with polycationic vectors with low efficiency. The major cell limiting step is considered to be delivery of the transfected nucleic acid into the nucleus. Transportation of the nucleic acid through the cytoplasm to the nucleus is slow and the pores in the nuclear envelope are too small to permit rapid entry of the transfected nucleic acid. It is generally accepted that sub-confluent cultures, in which the cells are dividing, should be used for transfection. We attempted transfection with the transfection complexes of WO98/54347 but using cell line cultures that were confluent i.e. effectively non-mitotic.
# The present invention is based on the surprising observation that the use of EGTA with a transfection vector comprising DNA, an integrin-binding component, a polycationic nucleic acid-binding component, and a lipid component, enhances transfection efficiency of confluent cells, which are slowly dividing or non-dividing i.e. substantially non-mitotic cells, in vitro and in vivo.
# In accordance with the present invention integrin-targeted transfection vector complexes comprising peptide 6 above, which is an α5β1-targeted peptide, linked to oligolysine comprising 16 lysines i.e. K16, (component I); lipofectin (component L); and a reporter gene (component D) were used with EGTA for transfection. Sub-confluent normal and CF epithelial cell lines were transfected with the green fluorescent report gene and transfection efficiencies of 40 to 50% were achieved. Cells were then cultured in confluent monolayers to model more closely airway structure. […]
compound,measurement,setting,value
"O=C(O)CN(CCOCCOCCN(CC(=O)O)CC(=O)O)CC(=O)O [EGTA, ethylene glycol-bis(β-aminoethyl ether)-N,N,N′,N′-tetraacetic acid]","enhancement of transfection, EGTA pre-treatment protocol, confluent cells",[1],no enhancement
same,binding of LID particles to confluent cells,[2],greatly increased
same,effect on transfection efficiency of sub-confluent cells,[3],no effect
same,increase of transfection efficiency of airway epithelial cells in vitro,[3]; green fluorescent protein and luciferase reporter genes,about four-fold
same,"transfection efficiency, confluent cells co-treated with EGTA",[3]; green fluorescent reporter gene,20 to 30%
